Results taken from patent US10556863B1, “Crystalline form of (R)-4-hydroxy-2-oxo-1-pyrrolidineacetamide, preparation method therefor and use thereof” (CHONGQING RUNZE PHARMACEUTICAL COMPANY LIMITED, priority 2016, dated 2020).
Entries after “also recorded” stand apart in the source; their conditions may differ.

Assays:
solubility in water = format: physicochemical
[1] = variable-temperature powder X-ray diffraction, crystal form stability at high temperatures; format: physicochemical; settings: heated from 30° C. to 80° C.; powder X-ray diffraction at 35, 45, 55, 65 and 75° C.
Protocol: The crystalline form I of (R)-4-hydroxy-2-oxo-1-pyrrolidineacetamide of the invention was placed on a single crystal silicon sample stage, heated from 30° C. to 80° C., and subjected to powder X-ray diffraction measurement at 35° C., 45° C., 55° C., 65° C. and 75° C., respectively. […] It can be seen that the crystalline form I of (R)-4-hydroxy-2-oxo-1-pyrrolidineacetamide of the invention has good stability at high temperatures. When the crystalline form I of (R)-4-hydroxy-2-oxo-1-pyrrolidineacetamide of the invention is used for storage or formulation processing, the requirements on processing and storage temperatures are reduced.

solubility (solubility in water): ≥ 90 mg/mL
SMILES: NC(=O)CN1C[C@H](O)CC1=O [crystalline form I, (R)-4-hydroxy-2-oxo-1-pyrrolidineacetamide]
crystal transformation on heating (stability at high temperatures) [1]: does not show a phenomenon of crystal transformation; also recorded: does not exhibit crystal transformation phenomenon
